“And” between values parts separate entries of the source, which are not always exact repeats. Identical values can stand only once.
Columns and labels:
[1] = tested on: native presynaptic A1Rs, rat hippocampal slices; test: Extracellular fEPSP recording, inhibition of excitatory synaptic transmission in hippocampal slices; format: cell-based
Experimental: (§1) Rats were kept on a 12-hour light-dark cycle with slices made 90 min after entering the light cycle. […] The brain was removed, cut down the midline and the two sides of the brain stuck down to a metal base plate using cyanoacrylate glue. […] Slices were stored at 34 °C for 1–6 h in aCSF (1 mM MgCl2, 2 mM CaCl2) before use.
A slice was transferred to the recording chamber, submerged in aCSF and perfused at 4–6 ml min^−1 (32 ± 0.5 °C). The slice was placed on a grid allowing perfusion above and below the tissue and all tubing was gastight (to prevent loss of oxygen). […] Field excitatory postsynaptic potentials (fEPSPs) were evoked with either an isolated pulse stimulator model 2100 (AM Systems, WA) or ISO-Flex (AMPI, Jerusalem, Israel). For fEPSPs a 10–20 min baseline was recorded at a stimulus intensity that gave 40-50% of the maximal response. […] For fEPSP slope, a 1 ms linear region after the fibre volley was measured. Extracellular recordings were made independently on two electrophysiology rigs.
Statistical significance was tested as indicated in the text using paired or unpaired two-tailed t-tests or one-way or two-way ANOVAs with repeated measures (RM) as appropriate. Bonferroni corrections for multiple comparisons were performed. All in vitro cell signalling assay data was analysed using Prism 8.4 (Graphpad software, San Diego, CA), with all concentration-response curves being fitted using a 3 parameter logistic equation to calculate response range and IC50. All cAMP data was normalised to a forskolin concentration-response curve ran in parallel to each assay.

[2] = Half-life determination in PBS; format: physicochemical; details: PBS, pH 7.4
Experimental: […] Samples were analysed by HPLC-MS/MS and corresponding peak areas were recorded for each analyte. The ratio of precursor compound remaining after each time-point relative to the amount present at time 0, expressed as a percentage, is reported as chemical stability.

[3] = Half-life determination in human plasma; details: UoBern01 at 1.00E-06 M
Experimental: (§3) At the end of incubation at each of the time points (0, 0.5, 1, 1.5, 2 h), acetonitrile was added to the incubation mixture followed by centrifugation. Samples were analysed by HPLC-MS/MS and peak areas were recorded for each analyte. The area of precursor compound remaining after each of the time points relative to the amount remaining at time 0, expressed as a percentage, was calculated. Subsequently, the t1/2 is estimated from the slope of the initial linear range of the logarithmic curve of compound remaining (%) versus time, assuming first-order kinetics.

[4] = Intrinsic clearance by human liver microsomes; details: UoBern01 at 1.00E-07 M
[5] = tested on: CA1 pyramidal cells (Goa / Gob signalling); test: Whole-cell voltage-clamp, adenosine-induced outward current with intracellular G protein interfering peptides; format: cell-based, rat; details: adenosine 10 µM, peptide 100 µM, held at −60 mV
Experimental: (§2) A slice was transferred to the recording chamber and perfused at 3 ml min^−1 with aCSF at 32 ± 0.5 °C. Slices were visualised using IR-DIC optics with an Olympus BX151W microscope (Scientifica) and a CCD camera (Hitachi). […] Voltage and current recordings were obtained using an Axon Multiclamp 700B amplifier (Molecular Devices, USA) and digitised at 20 KHz. Data acquisition and analysis was performed using pClamp 10 (Molecular Devices, USA). For voltage-clamp experiments, CA1 pyramidal cells were held at −60 mV. Peptides to interfere with G protein signalling were introduced via the patch pipette into the recorded cell.
Drugs were made up as stock solutions (1-10 mM) and then diluted in aCSF or saline on the day of use. […] MRS1523 was purchased from Cayman Chemicals (Cambridge Bioscience Ltd., Cambridge UK). […] CA200645 and peptides for interfering with G protein signalling were obtained from Hello Bio (Bristol, UK) and were based on published sequences. […] The scrambled version was […]. […] Peptides were made up as stock solutions (2 mM) and stored at −20 °C. The stock solutions were dissolved in filtered intracellular solution just before use.

[6] = tested on: postsynaptic A1Rs, CA1 pyramidal cells; test: Whole-cell patch-clamp, membrane potential of CA1 pyramidal cells; format: cell-based, rat
Experimental: as §1, §2

in vitro = details: human, plasma
Experimental: as §3

[7] = incubation 0 minutes, UoBern01 at 1.00E-06 M
[8] = incubation 60 minutes, UoBern01 at 1.00E-06 M
[9] = incubation 120 minutes, UoBern01 at 1.00E-06 M
[10] = incubation 180 minutes, 1.00E-06 M
[11] = incubation 240 minutes, 1.00E-06 M

Molecule: CCNC(=O)[C@H]1O[C@@H](n2cnc3c(N)ncnc32)[C@H](O)[C@@H]1O [NECA, 5′-(N-Ethylcarboxamido) adenosine]
- IC50 ([1]; fEPSP, rat hippocampal slices, read-out: IC50 inhibition of synaptic transmission): 8.3 ± 3 nM

Molecule: OC[C@H]1O[C@@H](n2cnc3c(N[C@@H]4CCC[C@H]4OCc4ccccc4)ncnc32)[C@H](O)[C@@H]1O [UoBern01]
- 2nd / Half-Life ([2]; UoBern01 at 1.00E-06 M): >240 min
- Mean / Half-Life ([2]; UoBern01 at 1.00E-06 M): >240 min
- 1st / % Compound Remaining [2, 7]: 100%
- 2nd / % Compound Remaining [2, 7]: 100%
- Mean / % Compound Remaining [2, 7]: 100%
- 1st / % Compound Remaining [2, 8]: 100%
- 2nd / % Compound Remaining [2, 8]: {204.3} %
- Mean / % Compound Remaining [2, 8]: 100%
- 1st / % Compound Remaining [2, 9]: 99.8%
- 2nd / % Compound Remaining [2, 9]: 105.3%
- Mean / % Compound Remaining [2, 9]: 102.5%
- 1st / % Compound Remaining [2, 10]: 96.7%
- 2nd / % Compound Remaining [2, 10]: {108.7} %
- Mean / % Compound Remaining [2, 10]: 96.7%
- 1st / % Compound Remaining [2, 11]: 89.5%
- 2nd / % Compound Remaining [2, 11]: 100.9%
- Mean / % Compound Remaining [2, 11]: 95.2%
- 1st / Half-Life [3]: >120 min
- 2nd / Half-Life [3]: >120 min
- Mean / Half-Life [3]: >120 min
- 1st / % Compound Remaining ([3]; incubation 0 minutes): 100%
- 2nd / % Compound Remaining ([3]; incubation 0 minutes): 100%
- Mean / % Compound Remaining ([3]; incubation 0 minutes): 100%
- 1st / % Compound Remaining ([3]; incubation 30 minutes): 104.2%
- 2nd / % Compound Remaining ([3]; incubation 30 minutes): {224.0} %
- Mean / % Compound Remaining ([3]; incubation 30 minutes): 104.2%
- 1st / % Compound Remaining ([3]; incubation 60 minutes): 124.2%
- 2nd / % Compound Remaining ([3]; incubation 60 minutes): 99%
- Mean / % Compound Remaining ([3]; incubation 60 minutes): 111.6%
- 1st / % Compound Remaining ([3]; incubation 90 minutes): 133.3%
- 2nd / % Compound Remaining ([3]; incubation 90 minutes): 101.7%
- Mean / % Compound Remaining ([3]; incubation 90 minutes): 117.5%
- 1st / % Compound Remaining ([3]; incubation 120 minutes): {142.4} %
- 2nd / % Compound Remaining ([3]; incubation 120 minutes): 108.4%
- Mean / % Compound Remaining ([3]; incubation 120 minutes): 108.4%
- Clint [4]: <115.5
- Mean / Half-Life [4]: >60 min
- 1st / % Compound Remaining ([4]; incubation 0 minutes): 100%
- 2nd / % Compound Remaining ([4]; incubation 0 minutes): 100%
- Mean / % Compound Remaining ([4]; incubation 0 minutes): 100%
- 1st / % Compound Remaining ([4]; incubation 15 minutes): 108.5%
- 2nd / % Compound Remaining ([4]; incubation 15 minutes): 101.9%
- Mean / % Compound Remaining ([4]; incubation 15 minutes): 105.2%
- 1st / % Compound Remaining ([4]; incubation 30 minutes): 92.9%
- 2nd / % Compound Remaining ([4]; incubation 30 minutes): 86%
- Mean / % Compound Remaining ([4]; incubation 30 minutes): 89.4%
- 1st / % Compound Remaining ([4]; incubation 45 minutes): 92%
- 2nd / % Compound Remaining ([4]; incubation 45 minutes): 89.5%
- Mean / % Compound Remaining ([4]; incubation 45 minutes): 90.7%
- 1st / % Compound Remaining ([4]; incubation 60 minutes): 84.1%
- 2nd / % Compound Remaining ([4]; incubation 60 minutes): 69.7%
- Mean / % Compound Remaining ([4]; incubation 60 minutes): 76.9%

Molecule: OC[C@H]1O[C@@H](n2cnc3c(N[C@@H]4CCC[C@H]4OCc4ccccc4)ncnc32)[C@H](O)[C@@H]1O [BnOCPA, (2 R,3 R,4 S,5 R)−2-(6-{[(1 R,2 R)−2-benzyloxycyclopentyl]amino}−9H-purin-9-yl)−5-(hydroxymethyl)oxolane-3,4-diol]
- time constant of inhibition of synaptic transmission (single exponential) ([1]; 300 nM): 2.2 min

Molecule: LNRGNAYLCIGMG [Goa SCR, scrambled version of the Goa interfering peptide]
- adenosine-induced outward current with intracellular peptide [5]: 45.8 pA and 40.3 pA and 52.5 pA and 32 pA and 47 pA and 43.9 pA and 42 pA
- adenosine-induced outward current with intracellular peptide ([5]; listed as scrambled Goa peptide): 43.4 ± 2.4 pA
- adenosine-induced outward current with intracellular peptide ([5]; mean): 43.36 pA

Molecule: CNC(=O)[C@H]1O[C@@H](n2cnc3c(NCc4cccc(I)c4)nc(Cl)nc32)[C@H](O)[C@@H]1O [2-Cl-IB-MECA]
- effect on membrane potential ([6]; 1 µM): had no effect on membrane potential

Molecule: NCC(CC(=O)O)c1ccc(Cl)cc1 (stereo not drawn) [baclofen]
- membrane hyperpolarisation ([6]; baclofen 10 µM in the presence of BnOCPA 300 nM): 6.5 ± 0.43 mV
- membrane hyperpolarisation ([6]; baclofen in control conditions): 6.3 ± 0.76 mV

Molecule: CCCOc1cc(N)ccc1C(=O)OCCN(CC)CC [Propoxycaine]
- half-life (in vitro): 3.8 min
- 2nd / Half-Life [3]: 3.4 min
- Mean / Half-Life [3]: 4 min
- 1st / % Compound Remaining ([3]; incubation 0 minutes): 100%
- 2nd / % Compound Remaining ([3]; incubation 0 minutes): 100%
- Mean / % Compound Remaining ([3]; incubation 0 minutes): 100%
- 1st / % Compound Remaining ([3]; incubation 30 minutes): 0.4%
- 2nd / % Compound Remaining ([3]; incubation 30 minutes): 0.2%
- Mean / % Compound Remaining ([3]; incubation 30 minutes): 0.3%
- 1st / % Compound Remaining ([3]; incubation 60 minutes): 0.3%
- 2nd / % Compound Remaining ([3]; incubation 60 minutes): 0.2%
- Mean / % Compound Remaining ([3]; incubation 60 minutes): 0.3%
- 1st / % Compound Remaining ([3]; incubation 90 minutes): 0.3%
- 2nd / % Compound Remaining ([3]; incubation 90 minutes): 0.5%
- Mean / % Compound Remaining ([3]; incubation 90 minutes): 0.4%
- 1st / % Compound Remaining ([3]; incubation 120 minutes): 0.1%
- 2nd / % Compound Remaining ([3]; incubation 120 minutes): 0.3%
- Mean / % Compound Remaining ([3]; incubation 120 minutes): 0.2%
